How the values were obtained:
Test in all cases: relative viability (nuclei count vs DMSO), 5 days (fraction); higher = more cells survive
GW-2580 + Pemetrexed = compound: COC1=CC=C(C=C1)COC2=C(C=C(C=C2)CC3=CN=C(N=C3N)N)OC [GW-2580] + Nc1nc2[nH]cc(CCc3ccc(C(=O)N[C@@H](CCC(=O)O)C(=O)O)cc3)c2c(=O)[nH]1 [Pemetrexed] (partner 0.2 µM)
Summary of the method: (§1)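 Values are medians from duplicate plates. Each reflects relative viability, defined as the nuclei count of treated wells over that of vehicle wells. Lung cancer cell lines in 1536-well plates were pin-tool dosed one day after seeding with one drug alone or with a fixed anchor-drug dose plus five library-drug doses (not always all listed) in √10 steps, then fixed, stained and imaged at 4× after 5 days.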

Fedratinib + Navitoclax = compound: Cc1cnc(Nc2ccc(OCCN3CCCC3)cc2)nc1Nc1cccc(S(=O)(=O)NC(C)(C)C)c1 [Fedratinib] + CC1(C)CCC(c2ccc(Cl)cc2)=C(CN2CCN(c3ccc(C(=O)NS(=O)(=O)c4ccc(N[C@H](CCN5CCOCC5)CSc5ccccc5)c(S(=O)(=O)C(F)(F)F)c4)cc3)CC2)C1 [Navitoclax] (partner 0.5 µM)
Summary of the method: as §1

Fedratinib + OSI-027 = compound: Cc1cnc(Nc2ccc(OCCN3CCCC3)cc2)nc1Nc1cccc(S(=O)(=O)NC(C)(C)C)c1 [Fedratinib] + COc1cccc2cc(-c3nc([C@H]4CC[C@H](C(=O)O)CC4)n4ncnc(N)c34)[nH]c12 [OSI-027] (partner 0.5 µM)
Summary of the method: as §1

Fedratinib + Crizotinib = compound: Cc1cnc(Nc2ccc(OCCN3CCCC3)cc2)nc1Nc1cccc(S(=O)(=O)NC(C)(C)C)c1 [Fedratinib] + C[C@@H](Oc1cc(-c2cnn(C3CCNCC3)c2)cnc1N)c1c(Cl)ccc(F)c1Cl [Crizotinib] (partner 1 µM)
Summary of the method: as §1

Fedratinib + Decitabine = compound: Cc1cnc(Nc2ccc(OCCN3CCCC3)cc2)nc1Nc1cccc(S(=O)(=O)NC(C)(C)C)c1 [Fedratinib] + Nc1ncn([C@H]2C[C@H](O)[C@@H](CO)O2)c(=O)n1 [Decitabine] (partner 2 µM)
Summary of the method: as §1

Fedratinib + Olaparib = compound: Cc1cnc(Nc2ccc(OCCN3CCCC3)cc2)nc1Nc1cccc(S(=O)(=O)NC(C)(C)C)c1 [Fedratinib] + O=C(c1cc(Cc2n[nH]c(=O)c3ccccc23)ccc1F)N1CCN(C(=O)C2CC2)CC1 [Olaparib] (partner 8 µM)
Summary of the method: as §1

Cell Line | relative viability (GW-2580 + Pemetrexed; first compound 0.08 µM) | relative viability (GW-2580 + Pemetrexed; first compound 0.8 µM) | relative viability (GW-2580 + Pemetrexed; first compound 2.53 µM) | relative viability (GW-2580 + Pemetrexed; first compound 8 µM) | relative viability (Fedratinib + Navitoclax; first compound 0.1 µM) | relative viability (Fedratinib + Navitoclax; first compound 0.3162 µM) | relative viability (Fedratinib + Navitoclax; first compound 1 µM) | relative viability (Fedratinib + OSI-027; first compound 0.1 µM) | relative viability (Fedratinib + OSI-027; first compound 0.3162 µM) | relative viability (Fedratinib + OSI-027; first compound 1 µM) | relative viability (Fedratinib + Crizotinib; first compound 0.1 µM) | relative viability (Fedratinib + Crizotinib; first compound 0.3162 µM) | relative viability (Fedratinib + Crizotinib; first compound 1 µM) | relative viability (Fedratinib + Decitabine; first compound 0.1 µM) | relative viability (Fedratinib + Decitabine; first compound 0.3162 µM) | relative viability (Fedratinib + Decitabine; first compound 1 µM) | relative viability (Fedratinib + Olaparib; first compound 0.1 µM) | relative viability (Fedratinib + Olaparib; first compound 0.3162 µM) | relative viability (Fedratinib + Olaparib; first compound 1 µM)
HCC-366 | 0.194 | 0.145 | 0.16 | 0.121 | 1.22 | 1.04 | 1.07 | 0.802 | 0.886 | 0.849 | 0.21 | 0.5 | 0.416 | 0.29 | 0.307 | 0.366 | 0.525 | 0.325 | 0.345
EMC-BAC-2 | 0.503 | 0.43 | – | 0.502 | 1.19 | 1.15 | 1.11 | 0.323 | 0.387 | 0.351 | 0.615 | 0.73 | 0.7 | 1.01 | 1.07 | 0.988 | 0.493 | 0.455 | 0.472
NCI-H2405 | 1.04 | 1.2 | 1.02 | 0.799 | 0.583 | 0.895 | 0.506 | 0.601 | 0.618 | 0.61 | 0.796 | 0.849 | 0.818 | 0.729 | 0.725 | 0.663 | 0.837 | 0.835 | 0.802
NCI-H1944 | 0.621 | 0.638 | 0.556 | 0.512 | 1.04 | 1.07 | 1.03 | 0.343 | 0.413 | 0.344 | 1.12 | 1.09 | 1.04 | 0.435 | 0.451 | 0.421 | 0.407 | 0.383 | 0.408
EPLC-272H | 0.325 | 0.283 | 0.342 | 0.329 | 1.14 | 0.936 | 1.09 | 0.276 | 0.289 | 0.114 | 1 | 0.87 | 0.757 | 0.312 | 0.393 | 0.344 | 0.601 | 0.847 | 0.459
NCI-H1915 | 0.519 | 0.53 | 0.509 | 0.486 | 0.747 | 0.726 | 0.761 | 0.612 | 0.67 | 0.319 | 0.942 | 0.866 | 0.777 | 0.266 | 0.258 | 0.247 | 0.262 | 0.227 | 0.222
NCI-H596 | 0.44 | 0.502 | 0.562 | 0.512 | 0.853 | 0.992 | 0.976 | 0.577 | 0.727 | 0.746 | 0.983 | 1.01 | 0.973 | 0.937 | 1.01 | 0.975 | 0.643 | 0.6 | 0.572
NCI-H322M | 0.582 | 0.626 | 0.676 | 0.567 | 1.16 | 1.18 | 1.23 | 0.548 | 0.566 | 0.462 | 0.949 | 0.877 | 0.966 | 0.657 | 0.749 | 0.64 | 0.861 | 0.772 | 0.643
NCI-H647 | 0.16 | 0.185 | 0.16 | 0.229 | 1.14 | 1.2 | 0.97 | 0.625 | 0.697 | 0.444 | 1.06 | 1.09 | 0.584 | 0.581 | 0.327 | 0.372 | 0.697 | 0.467 | 0.373
SK-MES-1 | 1.01 | 1.04 | 0.878 | 0.824 | 1.39 | 1.19 | 1.07 | 0.544 | 0.6 | 0.436 | 1.04 | 0.992 | 0.923 | 0.394 | 0.409 | 0.241 | 0.806 | 0.654 | 0.479
NCI-H2170 | 0.26 | 0.261 | 0.264 | 0.251 | 0.626 | 0.653 | 0.429 | 0.688 | 0.723 | 0.596 | 1.12 | 1.07 | 0.871 | 0.478 | 0.466 | 0.443 | 0.63 | 0.581 | 0.562
NCI-H2085 | 0.963 | 1.01 | 0.885 | 0.838 | 1.01 | 1.01 | 0.883 | 0.586 | 0.855 | 0.711 | 0.769 | 0.953 | 0.812 | 0.53 | 0.563 | 0.518 | 0.73 | 0.824 | 0.765
SW 1573 | 0.908 | 0.883 | 0.861 | 0.639 | 0.984 | 1 | 0.927 | 0.564 | 0.635 | 0.394 | 0.747 | 0.733 | 0.709 | 0.524 | 0.577 | 0.105 | 0.539 | 0.502 | 0.474
NCI-H441 | 0.273 | 0.26 | 0.234 | 0.262 | 0.534 | 0.341 | 0.574 | 0.443 | 0.625 | 0.511 | 0.65 | 0.623 | 0.619 | 0.223 | 0.218 | 0.233 | 0.607 | 0.481 | 0.525
LOU-NH91 | 0.349 | 0.381 | 0.399 | 0.412 | 0.588 | 0.786 | 0.575 | 0.669 | 0.72 | 0.664 | 0.701 | 0.764 | 0.75 | 0.756 | 0.798 | 0.785 | 0.847 | 0.941 | 0.91
NCI-H3122 | 0.212 | 0.211 | 0.203 | 0.207 | 1.01 | 0.964 | 1.01 | 0.911 | 0.918 | 0.854 | 0.317 | 0.235 | 0.265 | 0.392 | 0.417 | 0.403 | 0.739 | 0.632 | 0.608
NCI-H460 | 0.0622 | 0.0626 | 0.0647 | 0.0595 | 1.05 | 1.03 | 0.969 | 0.642 | 0.645 | 0.507 | 0.47 | 0.767 | 0.812 | 0.556 | 0.495 | 0.232 | 0.483 | 0.395 | 0.415
NCI-H1734 | 0.404 | 0.409 | 0.425 | 0.408 | 0.852 | 0.865 | 0.828 | 0.607 | 0.588 | 0.536 | 0.629 | 0.692 | 0.629 | 0.444 | 0.399 | 0.529 | 0.683 | 0.618 | 0.505
LXF-289 | 0.883 | 0.96 | 0.881 | 0.85 | 0.925 | 0.875 | 0.939 | 0.796 | 0.792 | 0.791 | 0.81 | 0.79 | 0.804 | 0.36 | 0.338 | 0.378 | 1.11 | 1.01 | 0.994
H3255 | 0.553 | 0.609 | 0.554 | 0.552 | 0.533 | 0.385 | 0.384 | 0.521 | 0.671 | 0.565 | 0.873 | 0.805 | 0.723 | 0.607 | 0.685 | 0.507 | 0.532 | 0.518 | 0.522
201T | 0.371 | 0.351 | 0.329 | 0.346 | 1.16 | 1.18 | 1.21 | 0.698 | 0.613 | 0.588 | 1.01 | 1.04 | 0.99 | 0.78 | 0.855 | 0.877 | 0.846 | 0.867 | 0.794
NCI-H2126 | 0.664 | 0.709 | 0.63 | 0.612 | 0.852 | 0.831 | 0.86 | 0.757 | 0.736 | 0.704 | 1.01 | 0.989 | 0.996 | 0.532 | 0.596 | 0.605 | 0.927 | 0.939 | 0.938
HOP-62 | 0.394 | 0.285 | 0.303 | 0.288 | 1.03 | 1.01 | 1.07 | 0.849 | 0.647 | 0.719 | 0.786 | 0.891 | 0.784 | 0.224 | 0.172 | 0.202 | 0.712 | 0.352 | 0.518
NCI-H520 | 0.7 | 0.579 | 0.598 | 0.554 | 1.13 | 1.07 | 0.983 | 0.255 | 0.253 | 0.216 | 0.716 | 0.703 | 0.594 | 0.557 | 0.454 | 0.532 | 0.306 | 0.347 | 0.29
NCI-H1755 | 0.677 | 0.474 | 0.429 | 0.43 | 1 | 0.972 | 0.894 | 0.601 | 0.757 | 0.651 | 0.858 | 0.862 | 0.802 | 0.662 | 0.723 | 0.664 | 0.898 | 0.861 | 0.855
NCI-H2023 | 0.344 | 0.279 | 0.238 | 0.205 | 1.04 | 0.945 | 0.946 | 0.393 | 0.394 | 0.328 | 0.585 | 0.715 | 0.58 | 0.21 | 0.23 | 0.117 | 0.533 | 0.488 | 0.44
NCI-H2009 | 1.06 | 1.11 | 0.945 | 0.843 | 1.13 | 1.19 | 1.1 | 0.529 | 0.632 | 0.455 | 1.04 | 0.977 | 0.884 | 0.368 | 0.406 | 0.356 | 0.692 | 0.694 | 0.649
